Key:
Test in all cases: fluorescence reverse titration
actin binding domain = actin binding domain (Homo sapiens, UniProt P11277)
SH3 domain = target: T1, SH3 domain (Homo sapiens, UniProt P02549); format: binding
T1 sequence (P02549 973-1055): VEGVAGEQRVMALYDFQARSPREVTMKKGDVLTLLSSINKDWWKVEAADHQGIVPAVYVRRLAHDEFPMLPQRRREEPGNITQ

α-tetramerization domain = target: T2, α-tetramerization domain (Homo sapiens, UniProt P02549); format: binding
T2 sequence (P02549 1-158): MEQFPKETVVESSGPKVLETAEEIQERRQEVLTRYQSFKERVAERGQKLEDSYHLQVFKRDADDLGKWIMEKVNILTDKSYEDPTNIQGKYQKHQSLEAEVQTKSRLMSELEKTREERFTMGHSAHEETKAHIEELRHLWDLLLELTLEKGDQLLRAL

[1] = target: T3, Self-association domain (reconstituted) (Homo sapiens, UniProt P02549+P11277); format: binding
T3 sequence (P02549 1-158): T2 sequence (P02549 1-158)
T3 sequence (P11277 1895-2137): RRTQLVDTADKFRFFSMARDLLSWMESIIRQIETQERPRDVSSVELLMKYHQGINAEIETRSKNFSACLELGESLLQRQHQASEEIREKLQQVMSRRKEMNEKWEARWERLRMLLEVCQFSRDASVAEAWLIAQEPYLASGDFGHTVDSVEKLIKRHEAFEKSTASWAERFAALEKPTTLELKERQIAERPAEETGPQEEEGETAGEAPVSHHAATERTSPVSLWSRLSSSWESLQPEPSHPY

ankyrin binding domain = target: T4, ankyrin binding domain (Homo sapiens, UniProt P11277)
T4 sequence (P11277 1657-1876): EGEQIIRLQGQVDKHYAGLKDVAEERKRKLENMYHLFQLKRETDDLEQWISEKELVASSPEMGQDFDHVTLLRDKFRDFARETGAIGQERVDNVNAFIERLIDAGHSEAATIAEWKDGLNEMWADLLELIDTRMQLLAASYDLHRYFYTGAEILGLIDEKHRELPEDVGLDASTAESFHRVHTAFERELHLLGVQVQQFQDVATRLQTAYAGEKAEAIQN

α-dimerization domain = target: T5, α-dimerization domain (Homo sapiens, UniProt P02549); format: binding
T5 sequence (P02549 2002-2233): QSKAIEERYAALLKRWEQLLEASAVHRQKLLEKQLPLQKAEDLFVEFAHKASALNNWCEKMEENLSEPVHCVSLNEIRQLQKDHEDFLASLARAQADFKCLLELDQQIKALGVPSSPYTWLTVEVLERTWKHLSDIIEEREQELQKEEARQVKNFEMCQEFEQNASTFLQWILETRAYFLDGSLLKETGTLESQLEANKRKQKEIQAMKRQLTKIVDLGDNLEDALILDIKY

β-tetramerization domain = target: T6, β-tetramerization domain (Homo sapiens, UniProt P11277); format: binding
T6 sequence (P11277 1895-2137): T3 sequence (P11277 1895-2137)

spectrin repeat domain = target: T7, spectrin repeat domain (Homo sapiens, UniProt P02549); format: binding
T7 sequence (P02549 1470-1576): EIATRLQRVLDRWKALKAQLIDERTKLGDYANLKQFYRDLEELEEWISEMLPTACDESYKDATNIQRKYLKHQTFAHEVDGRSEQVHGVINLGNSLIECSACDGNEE

β-dimerization domain = β-dimerization domain (Homo sapiens, UniProt P11277); format: binding
[2] = target: Spectrin (dimeric human erythroid spectrin) (Homo sapiens, UniProt P02549+P11277); format: binding
Spectrin (dimeric human erythroid spectrin), sequence (P02549 whole entry): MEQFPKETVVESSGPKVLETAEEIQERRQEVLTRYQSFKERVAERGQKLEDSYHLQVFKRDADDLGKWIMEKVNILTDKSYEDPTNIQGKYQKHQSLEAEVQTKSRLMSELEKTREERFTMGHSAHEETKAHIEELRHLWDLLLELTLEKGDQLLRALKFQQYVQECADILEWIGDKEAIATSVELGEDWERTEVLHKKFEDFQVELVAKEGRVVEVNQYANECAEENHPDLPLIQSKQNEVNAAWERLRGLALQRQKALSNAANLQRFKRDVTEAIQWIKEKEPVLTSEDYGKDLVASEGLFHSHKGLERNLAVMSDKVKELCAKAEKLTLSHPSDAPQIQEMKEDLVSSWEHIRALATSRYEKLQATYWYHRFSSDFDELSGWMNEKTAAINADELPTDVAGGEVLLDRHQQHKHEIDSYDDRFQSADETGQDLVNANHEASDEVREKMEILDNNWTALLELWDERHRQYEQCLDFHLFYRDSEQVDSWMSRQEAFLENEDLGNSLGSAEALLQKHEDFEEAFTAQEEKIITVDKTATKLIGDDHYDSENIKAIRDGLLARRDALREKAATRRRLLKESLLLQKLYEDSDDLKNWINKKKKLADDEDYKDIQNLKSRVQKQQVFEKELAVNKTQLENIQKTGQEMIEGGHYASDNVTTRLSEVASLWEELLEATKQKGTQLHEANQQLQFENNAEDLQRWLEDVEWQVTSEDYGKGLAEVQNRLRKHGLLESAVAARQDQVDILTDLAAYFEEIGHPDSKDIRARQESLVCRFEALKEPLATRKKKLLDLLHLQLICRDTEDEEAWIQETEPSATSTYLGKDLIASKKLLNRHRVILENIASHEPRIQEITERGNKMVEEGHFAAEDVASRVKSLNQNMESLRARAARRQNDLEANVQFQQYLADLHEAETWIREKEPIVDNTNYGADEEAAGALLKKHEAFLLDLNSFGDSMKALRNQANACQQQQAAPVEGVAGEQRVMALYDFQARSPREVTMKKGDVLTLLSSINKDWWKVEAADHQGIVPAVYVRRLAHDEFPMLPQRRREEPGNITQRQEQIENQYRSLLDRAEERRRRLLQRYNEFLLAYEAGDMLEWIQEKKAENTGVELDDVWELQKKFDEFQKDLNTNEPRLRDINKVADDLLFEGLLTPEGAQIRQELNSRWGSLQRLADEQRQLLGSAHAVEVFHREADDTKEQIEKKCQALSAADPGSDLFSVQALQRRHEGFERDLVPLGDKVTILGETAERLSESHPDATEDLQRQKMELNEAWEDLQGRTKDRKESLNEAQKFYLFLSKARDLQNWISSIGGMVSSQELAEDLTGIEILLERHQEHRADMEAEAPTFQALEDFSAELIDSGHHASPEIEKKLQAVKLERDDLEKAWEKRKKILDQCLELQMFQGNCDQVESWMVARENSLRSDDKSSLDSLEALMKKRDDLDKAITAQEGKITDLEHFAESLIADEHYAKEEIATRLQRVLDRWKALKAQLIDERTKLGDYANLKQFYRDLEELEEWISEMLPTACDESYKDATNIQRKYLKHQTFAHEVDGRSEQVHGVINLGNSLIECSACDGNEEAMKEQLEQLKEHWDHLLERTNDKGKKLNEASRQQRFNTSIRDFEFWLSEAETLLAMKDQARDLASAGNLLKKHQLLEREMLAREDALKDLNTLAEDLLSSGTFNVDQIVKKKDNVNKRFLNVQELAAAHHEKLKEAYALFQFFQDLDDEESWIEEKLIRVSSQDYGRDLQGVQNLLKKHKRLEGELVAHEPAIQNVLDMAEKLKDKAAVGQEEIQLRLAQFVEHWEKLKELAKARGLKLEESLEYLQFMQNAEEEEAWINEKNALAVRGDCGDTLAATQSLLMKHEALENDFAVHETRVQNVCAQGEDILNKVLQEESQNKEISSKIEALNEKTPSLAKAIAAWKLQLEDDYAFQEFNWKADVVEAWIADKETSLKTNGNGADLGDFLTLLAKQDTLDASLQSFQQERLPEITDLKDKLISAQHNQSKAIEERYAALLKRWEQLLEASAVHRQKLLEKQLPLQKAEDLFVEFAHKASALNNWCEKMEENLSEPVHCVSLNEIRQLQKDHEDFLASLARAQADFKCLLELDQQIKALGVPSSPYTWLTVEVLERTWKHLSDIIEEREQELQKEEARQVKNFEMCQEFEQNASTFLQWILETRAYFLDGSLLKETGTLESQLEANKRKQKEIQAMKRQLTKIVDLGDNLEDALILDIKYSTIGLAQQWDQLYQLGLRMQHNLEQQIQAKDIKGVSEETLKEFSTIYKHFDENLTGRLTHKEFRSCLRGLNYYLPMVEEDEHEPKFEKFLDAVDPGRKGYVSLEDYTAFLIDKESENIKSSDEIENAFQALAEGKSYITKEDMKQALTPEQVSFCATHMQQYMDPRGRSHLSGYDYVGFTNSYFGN
Spectrin (dimeric human erythroid spectrin), sequence (P11277 2-2137): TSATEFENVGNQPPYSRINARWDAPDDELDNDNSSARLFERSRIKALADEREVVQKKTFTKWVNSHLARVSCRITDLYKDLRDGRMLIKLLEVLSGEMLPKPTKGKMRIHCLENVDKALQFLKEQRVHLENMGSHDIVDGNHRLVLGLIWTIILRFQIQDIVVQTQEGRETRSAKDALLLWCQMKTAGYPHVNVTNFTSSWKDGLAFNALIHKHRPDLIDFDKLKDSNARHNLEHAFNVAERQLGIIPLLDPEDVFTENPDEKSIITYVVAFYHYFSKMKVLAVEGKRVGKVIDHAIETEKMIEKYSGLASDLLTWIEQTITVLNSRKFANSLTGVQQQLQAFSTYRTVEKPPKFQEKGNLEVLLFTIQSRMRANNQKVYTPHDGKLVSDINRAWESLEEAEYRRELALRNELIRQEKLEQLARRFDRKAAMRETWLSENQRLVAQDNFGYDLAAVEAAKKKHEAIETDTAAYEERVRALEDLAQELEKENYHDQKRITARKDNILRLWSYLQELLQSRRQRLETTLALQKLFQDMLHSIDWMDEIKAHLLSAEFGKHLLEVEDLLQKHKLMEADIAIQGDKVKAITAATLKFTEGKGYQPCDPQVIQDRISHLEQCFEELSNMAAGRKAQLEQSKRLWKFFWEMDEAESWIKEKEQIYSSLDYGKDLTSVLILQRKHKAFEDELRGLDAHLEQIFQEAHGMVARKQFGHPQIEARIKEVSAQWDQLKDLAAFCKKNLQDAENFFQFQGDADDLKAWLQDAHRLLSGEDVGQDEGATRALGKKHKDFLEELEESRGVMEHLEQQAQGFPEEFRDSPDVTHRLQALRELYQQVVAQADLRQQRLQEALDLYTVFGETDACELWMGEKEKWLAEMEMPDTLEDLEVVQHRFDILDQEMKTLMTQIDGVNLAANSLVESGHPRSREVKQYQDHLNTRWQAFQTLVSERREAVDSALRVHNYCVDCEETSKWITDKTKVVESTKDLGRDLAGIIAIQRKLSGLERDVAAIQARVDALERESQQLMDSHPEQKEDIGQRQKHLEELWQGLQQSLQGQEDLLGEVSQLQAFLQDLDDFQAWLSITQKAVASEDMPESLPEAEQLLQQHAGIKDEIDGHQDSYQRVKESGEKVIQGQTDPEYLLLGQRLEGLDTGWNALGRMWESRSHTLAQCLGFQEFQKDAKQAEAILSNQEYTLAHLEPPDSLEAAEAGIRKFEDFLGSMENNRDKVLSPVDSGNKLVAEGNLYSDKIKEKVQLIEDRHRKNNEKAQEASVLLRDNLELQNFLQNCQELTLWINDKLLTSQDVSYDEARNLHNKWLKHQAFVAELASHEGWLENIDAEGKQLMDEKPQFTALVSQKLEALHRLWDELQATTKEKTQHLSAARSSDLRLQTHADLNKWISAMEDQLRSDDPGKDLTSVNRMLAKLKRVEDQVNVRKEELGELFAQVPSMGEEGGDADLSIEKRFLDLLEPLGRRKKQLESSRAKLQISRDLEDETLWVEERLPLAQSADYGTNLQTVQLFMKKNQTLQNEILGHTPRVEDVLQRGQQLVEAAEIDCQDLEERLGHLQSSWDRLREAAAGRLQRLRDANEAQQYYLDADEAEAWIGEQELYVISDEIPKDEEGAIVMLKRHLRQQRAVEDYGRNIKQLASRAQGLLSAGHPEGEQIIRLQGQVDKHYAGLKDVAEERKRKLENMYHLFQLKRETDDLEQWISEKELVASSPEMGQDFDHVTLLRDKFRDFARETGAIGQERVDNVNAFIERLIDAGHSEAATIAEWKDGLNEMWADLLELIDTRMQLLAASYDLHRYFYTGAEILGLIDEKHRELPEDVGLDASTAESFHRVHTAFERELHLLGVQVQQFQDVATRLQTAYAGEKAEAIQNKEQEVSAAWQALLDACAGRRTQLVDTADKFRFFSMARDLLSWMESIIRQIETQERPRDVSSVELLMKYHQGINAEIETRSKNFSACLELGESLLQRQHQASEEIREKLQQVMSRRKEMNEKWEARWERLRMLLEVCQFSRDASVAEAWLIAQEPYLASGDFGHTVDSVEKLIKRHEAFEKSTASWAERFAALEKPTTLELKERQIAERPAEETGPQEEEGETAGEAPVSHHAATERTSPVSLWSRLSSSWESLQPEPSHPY

β-dimerization domain, sequence (P11277 271-500): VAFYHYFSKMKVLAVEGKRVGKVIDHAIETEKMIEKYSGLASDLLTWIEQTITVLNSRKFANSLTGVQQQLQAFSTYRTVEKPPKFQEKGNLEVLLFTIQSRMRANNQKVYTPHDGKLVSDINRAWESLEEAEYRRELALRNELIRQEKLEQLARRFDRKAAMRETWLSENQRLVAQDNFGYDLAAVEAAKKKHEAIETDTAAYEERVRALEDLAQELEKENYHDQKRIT
actin binding domain, sequence (P11277 1-316): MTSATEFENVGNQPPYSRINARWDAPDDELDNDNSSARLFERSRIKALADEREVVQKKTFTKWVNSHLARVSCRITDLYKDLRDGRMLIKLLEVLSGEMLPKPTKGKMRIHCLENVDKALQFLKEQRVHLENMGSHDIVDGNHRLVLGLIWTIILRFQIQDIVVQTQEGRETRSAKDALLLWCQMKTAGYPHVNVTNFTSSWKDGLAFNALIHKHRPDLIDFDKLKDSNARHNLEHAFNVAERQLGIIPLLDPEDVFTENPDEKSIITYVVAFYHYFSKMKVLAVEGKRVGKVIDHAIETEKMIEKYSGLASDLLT

Kd (actin binding domain): 64.3 ± 3.9 µM
Kd (SH3 domain): 64 ± 2.7 µM
Kd (α-tetramerization domain): 45.4 ± 3.1 µM
Kd [1]: 38.9 ± 2.3 µM
Kd (ankyrin binding domain): 40 ± 2.8 µM
Kd (α-dimerization domain): 51.5 ± 3.2 µM
Kd (β-tetramerization domain): 48.2 ± 3.3 µM
Kd (spectrin repeat domain): 47.7 ± 2.9 µM
Kd (β-dimerization domain): 37.2 ± 3.1 µM
Kd [2]: 30.1 ± 2 µM
Structure (SMILES): O=S(=O)(O)c1cccc2cccc(Nc3ccccc3)c12 [ANS, 1-anilinonaphthalene-8-sulfonic acid]

— publication doi:10.1101/534982v1 (biorxiv, 2019)
